Assay results reported in US20110178062A1, “INDOLE AND BENZOTHIOPHENE COMPOUNDS AS MODULATORS OF THE HISTAMINE H3 RECEPTOR” (priority 2007, published 2011).

Target: T1, cloned human H3 receptors, stably expressed in SK-N-MC cells (Homo sapiens, UniProt Q9Y5N1)
T1 construct: expressed in transfected cells; host or cells: SK-N-MC cells
Assay: H3 Receptor Binding (Human)
Settings: average of the results obtained
Procedure: Binding of compounds to the cloned human H3 receptors, stably expressed in SK-N-MC cells, was performed as described by Barbier, A. J. et al. (Br. J. Pharmacol. 2004, 143(5), 649-661). Data for compounds tested in this assay are presented in Table 1 as an average of the results obtained.

T1 sequence (Q9Y5N1 whole entry): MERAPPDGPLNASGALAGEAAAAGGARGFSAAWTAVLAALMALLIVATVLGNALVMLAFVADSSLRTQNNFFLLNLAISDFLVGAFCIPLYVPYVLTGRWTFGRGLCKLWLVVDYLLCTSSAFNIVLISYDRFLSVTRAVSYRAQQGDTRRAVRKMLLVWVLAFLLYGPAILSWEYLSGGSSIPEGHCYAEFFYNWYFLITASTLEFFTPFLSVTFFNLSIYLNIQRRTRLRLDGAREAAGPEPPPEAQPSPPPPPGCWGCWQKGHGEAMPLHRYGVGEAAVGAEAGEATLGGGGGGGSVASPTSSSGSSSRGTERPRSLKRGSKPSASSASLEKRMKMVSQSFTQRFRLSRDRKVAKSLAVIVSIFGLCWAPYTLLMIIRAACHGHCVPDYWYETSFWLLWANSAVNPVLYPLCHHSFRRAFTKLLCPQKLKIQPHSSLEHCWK

## CC(C)N1CCN(C(=O)c2ccc3c(CN4CCN(c5nccs5)CC4)c[nH]c3c2)CC1 [Example 49, (4-Isopropyl-piperazin-1-yl)-[3-(4-thiazol-2-yl-piperazin-1-ylmethyl)-1H-indol-6-yl]-methanone]
  Ki: 7 nM

## O=C(c1ccc2c(CN3CCC(N4CCCCC4)CC3)c[nH]c2c1)N1CCC(c2ccccc2)CC1 [Example 85, (3-[1,4′]Bipiperidinyl-1′-ylmethyl-1H-indol-6-yl)-(4-phenyl-piperidin-1-yl)-methanone]
  Ki: 81 nM

## CC(C)N1CCN(C(=O)c2ccc3[nH]cc(CN4CCCCC4)c3c2)CC1 [Example 32, (4-Isopropyl-piperazin-1-yl)-(3-piperidin-1-ylmethyl-1H-indol-5-yl)-methanone]
  Ki: 34 nM

## Cc1cccnc1CNC(=O)c1ccc2c(CN3CCCCC3)c[nH]c2c1 [Example 17, 3-Piperidin-1-ylmethyl-1H-indole-6-carboxylic acid (3-methyl-pyridin-2-ylmethyl)-amide]
  Ki: 114 nM

## O=C(c1ccc2c(CN3CCOCC3)c[nH]c2c1)N1CCc2nc[nH]c2C1 [Example 13, (3-Morpholin-4-ylmethyl-1H-indol-6-yl)-(3,4,6,7-tetrahydro-imidazo[4,5-d]pyridin-5-yl)-methanone]
  Ki: 2000 nM

## O=C(c1ccc2c(CN3CCN(C4CCCC4)CC3)c[nH]c2c1)N1CCC(CO)CC1 [Example 80, [3-(4-Cyclopentyl-piperazin-1-ylmethy)l-1H-indol-6-yl]-(4-hydroxymethyl-piperidin-1-yl)-methanone]
  Ki: 38 nM

## O=C(c1ccc2[nH]cc(CN3CCCCC3)c2c1)N1CCN(C2CCC2)CC1 [Example 33, (4-Cyclobutyl-piperazin-1-yl)-(3-piperidin-1-ylmethyl-1H-indol-5-yl)-methanone]
  Ki: 13 nM

## O=C(c1ccc2c(CN3CCCN(C4CCC4)CC3)c[nH]c2c1)N1CCSCC1 [Example 71, [3-(4-Cyclobutyl-[1,4]diazepan-1-ylmethyl)-1H-indol-6-yl]-thiomorpholin-4-yl-methanone]
  Ki: 22 nM

## CC(=O)N(C)C1CCN(Cc2c[nH]c3cc(C(=O)N4CCN(C(C)C)CC4)ccc23)C1 (stereo not shown) [Example 60, N-{1-[6-(4-Isopropyl-piperazine-1-carbonyl)-1H-indol-3-ylmethyl]-pyrrolidin-3-yl}-N-methyl-acetamide]
  Ki: 1 nM

## CC(C)N1CCN(C(=O)c2ccc3c(CN4CCCCC4)c[nH]c3c2)CC1 [Example 24, (4-Isopropyl-piperazin-1-yl)-(3-piperidin-1-ylmethyl-1H-indol-6-yl)-methanone]
  Ki: 2 nM

## CC(C)N1CCCN(Cc2c[nH]c3cc(C(=O)N4CCC(CO)CC4)ccc23)CC1 [Example 84, (4-Hydroxymethyl-piperidin-1-yl)-[3-(4-isopropyl-[1,4]diazepan-1-ylmethyl)-1H-indol-6-yl]-methanone]
  Ki: 87 nM

## O=C(c1ccc2c(CN3CCN(C4CCCC4)CC3)c[nH]c2c1)N1CCOCC1 [Example 74, [3-(4-Cyclopentyl-piperazin-1-ylmethyl)-1H-indol-6-yl]-morpholin-4-yl-methanone]
  Ki: 53 nM

## O=C(c1cccc2[nH]cc(CN3CCOCC3)c12)N1CCN(C2CCC2)CC1 [Example 41, (4-Cyclobutyl-piperazin-1-yl)-(3-morpholin-4-ylmethyl-1H-indol-4-yl)-methanone]
  Ki: 5000 nM

## CC(C)N1CCN(C(=O)c2ccc3c(CN4CCN(C(=O)N5CCOCC5)CC4)c[nH]c3c2)CC1 [Example 61, (4-Isopropyl-piperazin-1-yl)-{3-[4-(morpholine-4-carbonyl)-piperazin-1-ylmethyl]-1H-indol-6-yl}-methanone]
  Ki: 3 nM

## CC(C)N1CCN(C(=O)c2cccc3c(CN4CCCCC4)c[nH]c23)CC1 [Example 22, (4-Isopropyl-piperazin-1-yl)-(3-piperidin-1-ylmethyl-1H-indol-7-yl)-methanone]
  Ki: 32 nM

## O=C(c1ccc2c(CN3CCC(N4CCCCC4)CC3)c[nH]c2c1)N1CCCCCC1 [Example 90, Azepan-1-yl-(3-[1,4′]bipiperidinyl-1′-ylmethyl-1H-indol-6-yl)-methanone]
  Ki: 21 nM
